pEC50, pIC50: −log10 of the molar value.
Experiments:
recombinant human HDAC8 = target: T1, recombinant human HDAC8 (Homo sapiens, UniProt Q9BY41); experiment: HDAC8 inhibition: recombinant HDAC8 fluorometric assay; format: biochemical; details: recombinant human HDAC8, substrate Ac-Arg-His-Lys-Lys(ε-acetyl)-AMC; read-out: HDAC8 IC50
T1 construct: made in house; host or cells: insect cells
T1 sequence (Q9BY41 1-377): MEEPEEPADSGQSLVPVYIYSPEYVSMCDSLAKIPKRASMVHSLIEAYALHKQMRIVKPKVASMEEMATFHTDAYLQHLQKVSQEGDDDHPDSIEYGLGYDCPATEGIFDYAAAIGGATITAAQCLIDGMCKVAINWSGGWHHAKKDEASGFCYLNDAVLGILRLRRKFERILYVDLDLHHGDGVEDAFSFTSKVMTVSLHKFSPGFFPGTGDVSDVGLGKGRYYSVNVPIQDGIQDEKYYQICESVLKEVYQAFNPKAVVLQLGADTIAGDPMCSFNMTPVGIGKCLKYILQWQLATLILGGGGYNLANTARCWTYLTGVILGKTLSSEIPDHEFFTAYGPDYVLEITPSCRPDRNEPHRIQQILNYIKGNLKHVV
Protocol: HDAC8 Inhibition by Novel Compounds: Recombinant HDAC8 Fluorometric Assay.
A competitive inhibitory assay of HDAC8 was carried out by using recombinant HDAC8 and a commercial substrate Ac-Arg-His-Lys-Lys(ε-acetyl)-AMC.
Compounds were tested for their ability to inhibit histone deacetylase 8 using an in vitro deacetylation assay. The enzyme source for this assay was recombinant human HDAC8 protein expressed and purified from insect cells. […] The substrate consisted of a commercial product Ac-Arg-His-Lys-Lys(ε-acetyl)-AMC (substrate is available from Cayman Chemical). […] 1 μl of half-log diluted compounds were added into wells and incubated for 15 min at rt. After that, 8 μl of substrate solution was transferred to the wells and incubated for 30 min at rt. After deacetylation of the substrate by incubation with HDAC8 enzyme, subsequent exposure to a developing reagent produced a fluorophore that was directly proportional to the level of deacetylation. […] The fluorescence signal was measured by a FlexStation3 plate reader (excitation wave length 340-360 nm; emission wave length 440-465 nm). The HDAC8 IC50 was calculated after normalization and curve fitting using XLfit4.0 software. Inhibition %=[Mean(top)−signal(sample)]×100/[Mean(top)−Mean(bottom)].

HDAC6 = target: T2, HDAC6 (Homo sapiens, UniProt Q9UBN7); experiment: Tubulin acetylation cytoblot assay (A549 cells); format: cell-based; details: 17-18 h incubation, tubulin acetylation as marker of HDAC6 inhibition, read-out: Tub-Ac EC50
T2 construct: endogenous in cells; host or cells: A549 cells
T2 sequence (Q9UBN7 1-1215): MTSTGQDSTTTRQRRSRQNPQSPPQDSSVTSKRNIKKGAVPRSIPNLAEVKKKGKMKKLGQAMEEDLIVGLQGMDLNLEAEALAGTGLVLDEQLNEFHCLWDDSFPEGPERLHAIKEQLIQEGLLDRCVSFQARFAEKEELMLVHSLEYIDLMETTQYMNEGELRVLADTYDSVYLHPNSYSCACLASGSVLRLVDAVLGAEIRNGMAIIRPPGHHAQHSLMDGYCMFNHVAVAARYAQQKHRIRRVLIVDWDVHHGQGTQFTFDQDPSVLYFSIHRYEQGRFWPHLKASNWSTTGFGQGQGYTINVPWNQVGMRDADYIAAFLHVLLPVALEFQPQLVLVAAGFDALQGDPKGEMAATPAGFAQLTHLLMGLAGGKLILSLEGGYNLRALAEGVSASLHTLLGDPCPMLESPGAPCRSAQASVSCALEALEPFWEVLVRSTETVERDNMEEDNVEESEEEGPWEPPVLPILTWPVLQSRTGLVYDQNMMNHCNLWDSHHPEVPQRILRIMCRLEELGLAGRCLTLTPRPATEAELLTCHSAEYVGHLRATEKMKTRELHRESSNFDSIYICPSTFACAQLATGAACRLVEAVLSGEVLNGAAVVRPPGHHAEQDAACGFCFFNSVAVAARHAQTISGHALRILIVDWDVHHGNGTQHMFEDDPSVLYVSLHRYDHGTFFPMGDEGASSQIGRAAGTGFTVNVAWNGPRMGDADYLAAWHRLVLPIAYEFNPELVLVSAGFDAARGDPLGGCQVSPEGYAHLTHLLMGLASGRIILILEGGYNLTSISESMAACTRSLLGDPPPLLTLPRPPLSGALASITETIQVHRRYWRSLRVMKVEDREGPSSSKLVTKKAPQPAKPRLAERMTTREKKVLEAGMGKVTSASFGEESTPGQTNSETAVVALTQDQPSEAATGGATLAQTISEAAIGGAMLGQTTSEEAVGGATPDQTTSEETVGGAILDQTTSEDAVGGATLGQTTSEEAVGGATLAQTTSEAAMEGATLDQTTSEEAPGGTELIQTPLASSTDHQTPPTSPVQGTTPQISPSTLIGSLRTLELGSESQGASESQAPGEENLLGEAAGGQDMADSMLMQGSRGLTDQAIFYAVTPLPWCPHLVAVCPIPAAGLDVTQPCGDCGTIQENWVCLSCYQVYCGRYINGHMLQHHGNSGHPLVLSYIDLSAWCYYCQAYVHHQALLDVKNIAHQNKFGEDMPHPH
Protocol: Tubulin Acetylation Induction by Novel Compounds: Tubulin Acetylation Cytoblot Assay.
Tubulin acetylation is a PD marker for HDAC6 inhibition. The extent of tubulin acetylation represents the inhibitory effect on HDAC6.
Novel compounds were tested for their ability to inhibit HDAC6 using a cell-based deacetylation assay. Tubulin acetylation was detected by the anti-acetylated tubulin antibody (Sigma) and horse radish peroxidase (HRP) conjugated secondary antibody (KangChen Bio. Tech.). […] 20 μl of diluted compound solution was transferred to the cell culture plate and incubated for 17-18 h. After medium removal and fixation by formaldehyde (3.7% paraformaldehyde in TBS), the cells in the plates were treated with 180 μl of −20° C. MeOH and incubated for 5 min at rt. The cell lysis was incubated with 75 μl of primary anti-acetylated tubulin antibody and secondary HRP conjugated antibody solution (1:750 anti-acetylated tubulin, 1:750 HRP conjugated anti-mouse IgG in antibody dilution buffer not containing sodium azide) for 4 h at 4° C. By adding the HRP substrate, enhanced chemiluminescence (ECL) reagent (GE Healthcare) generated luminescence corresponding to the level of tubulin acetylation. So that 75 μl of ECL was added into the wells and the luminescence from each well was immediately quantified by the plate reader. Based on the luminescence reading, the Tub-Ac EC50s against HDAC6 of the tested compounds were calculated by plotting the curve with XLfit4.0 software. Inhibition %=[signal(sample)−Mean(bottom)]×100/[Mean(top)−Mean(bottom)]

[1] = tested on: p21 promoter-luciferase construct; experiment: p21 reporter gene induction (HeLa cells, p21 promoter-luciferase construct); details: for p21 RP3: relative gene level of p21 compared to MS275 at 3 μM; for p21 RP10: relative level of p21 compared to MS275 at 10 μM; for p21 RP30: relative level of p21 compared to MS275 at 30 μM;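 for all read-outs here: transfected HeLa cells exposed to compound for 15 h, luciferase luminescence read from lysates, p21 promoter lacks p53 site, proxy for cellular HDAC1/2/3 inhibition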
Protocol: As a surrogate for in-cell HDAC1/2/3 inhibition, p21 induction was used as a counterscreen to evaluate the selectivity of the compounds in the present invention toward HDAC6 or HDAC8.
The novel compounds of the present invention were tested for their ability to induce p21 gene expression using a reporter gene assay involving HeLa cells transfected with a p21 promoter-luciferase construct. The p21 promoter contained the Sp1/Sp3 binding site for HDAC but not the upstream p53 binding site. Briefly, the day before transfection, HeLa cells were seeded at 11,000 cells/well in a 96-well culture plate and incubated at 37° C. in 5% CO2 overnight. A transfection media was prepared prior to transfection according to the following procedure: (1) 5 μl serum-free DMEM, 0.15 μl Fugene 6 reagent, 40 ng p21-luc, 10 ng GFP were mixed gently and incubated at rt for 30 minutes; (2), then 98 μl DMEM (with 10% FBS, 1% penicillin and streptomycin) was added to the DNA: Fugene 6 reagent complex and mixed gently. For transfection, the medium was removed and replaced with 100 μl/well transfection media which was prepared according to the procedure above. After incubating the cells for 24 hours at 37° C. in 5% CO2, fresh media and test compounds were added to the wells and the cells further incubated for 15 hours at 37° C. in 5% CO2. Cells were lysed by adding 80 μl/well of a cell culture lysis reagent (Promega). 50 μl of each lysate was taken for GFP detection using an excitation wavelength of 486 nm and detection at 527 nm. 100 μl luciferase assay reagent (Promega) was then added to every 20 μl cell lysate for luminometer detection.

SMILES | pIC50 (recombinant human HDAC8) | pEC50 (HDAC6) | p21 RP3 [1] | p21 RP10 [1] | p21 RP30 [1]
O=C(NO)c1ccc(NC2CCN(c3cc(F)cc(Cl)c3)C2=O)cc1 (centres unmarked) [Example 21, 4-[1-(3-Chloro-5-fluoro-phenyl)-2-oxo-pyrrolidin-3-ylamino]-N-hydroxy-benzamide] | 6.00 | 5.33 | 1.56 | 0.48 | 0.28
O=C(NO)c1ccc(NC2CCN(c3cc(Cl)ccc3F)C2=O)cc1 (centres unmarked) [Example 22, 4-[1-(5-Chloro-2-fluoro-phenyl)-2-oxo-pyrrolidin-3-ylamino]-N-hydroxy-benzamide] | 5.71 | 5.88 | 0.42 | 0.28 | 0.39
O=C(NO)c1ccc(NC2CCN(c3cccc(Cl)c3Cl)C2=O)cc1 (centres unmarked) [Example 24, 4-[1-(2,3-Dichloro-phenyl)-2-oxo-pyrrolidin-3-ylamino]-N-hydroxy-benzamide] | 6.11 | 5.61 | 0.11 | 0.02 | 0.02
O=C(NO)c1ccc(NC2CCN(c3ccc(Cl)c(Cl)c3)C2=O)cc1 (centres unmarked) [Example 25, 4-[1-(3,4-Dichloro-phenyl)-2-oxo-pyrrolidin-3-ylamino]-N-hydroxy-benzamide] | 6.01 | 5.36 | 0.00 | 0.14 | −0.03
O=C(NO)c1ccc(NC2CCN(c3cc(Cl)cc(Cl)c3)C2=O)cc1 (centres unmarked) [Example 26, 4-[1-(3,5-Dichloro-phenyl)-2-oxo-pyrrolidin-3-ylamino]-N-hydroxy-benzamide] | 5.33 | 5.31 | 0.42 | 0.06 | 0.04
O=C(NO)c1ccc(NC2CCN(c3c(Cl)cccc3Cl)C2=O)cc1 (centres unmarked) [Example 27, 4-[1-(2,6-Dichloro-phenyl)-2-oxo-pyrrolidin-3-ylamino]-N-hydroxy-benzamide] | 6.12 | 5.62 | 0.11 | 0.03 | 0.04
Cc1cc(F)cc(C)c1N1CCC(Nc2ccc(C(=O)NO)cc2)C1=O (centres unmarked) [Example 28, 4-[1-(4-Fluoro-2,6-dimethyl-phenyl)-2-oxo-pyrrolidin-3-ylamino]-N-hydroxy-benzamide] | 5.73 | 5.39 | 0.04 | 0.01 | 0.01
O=C(NO)c1ccc(NC2CCN(c3ccc(Cl)c(CO)c3)C2=O)cc1 (centres unmarked) [Example 29, 4-[1-(4-Chloro-3-hydroxymethyl-phenyl)-2-oxo-pyrrolidin-3-ylamino]-N-hydroxy-benzamide] | 6.12 | 4.86 | 0.55 | 0.10 | 0.12
O=C(NO)c1ccc(NC2CCN(c3cccc(Oc4ccccc4)c3)C2=O)cc1 (centres unmarked) [Example 30, N-Hydroxy-4-[2-oxo-1-(3-phenoxy-phenyl)-pyrrolidin-3-ylamino]-benzamide] | 5.49 | 5.64 | 0.13 | 0.09 | 0.05
CN(C)CCOc1cccc(N2CCC(Nc3ccc(C(=O)NO)cc3)C2=O)c1 (centres unmarked) [Example 36, 4-{1-[3-(2-Dimethylamino-ethoxy)-phenyl]-2-oxo-pyrrolidin-3-ylamino}-N-hydroxy-benzamide] | 6.31 | 5.69 | 0.55 | 0.18 | 0.45

Continued, in another order:

pIC50 (recombinant human HDAC8) | pEC50 (HDAC6) | SMILES | p21 RP3 [1] | p21 RP10 [1] | p21 RP30 [1]
5.38 | 5.01 | O=C(NO)c1ccc(NC2CCN(c3ccc(Oc4ccccc4)cc3)C2=O)cc1 (centres unmarked) [Example 31, N-Hydroxy-4-[2-oxo-1-(4-phenoxy-phenyl)-pyrrolidin-3-ylamino]-benzamide] | 0.09 | 0.07 | 0.05
6.15 | 6.15 | O=C(NO)c1ccc(NC2CCN(c3cccc(-c4ccccc4)c3)C2=O)cc1 (centres unmarked) [Example 32, 4-(1-Biphenyl-3-yl-2-oxo-pyrrolidin-3-ylamino)-N-hydroxy-benzamide] | 0.38 | 0.08 | 0.15
6.01 | 6.17 | O=C(NO)c1ccc(NC2CCN(c3cccc(-n4cccc4)c3)C2=O)cc1 (centres unmarked) [Example 33, N-Hydroxy-4-[2-oxo-1-(3-pyrrol-1-yl-phenyl)-pyrrolidin-3-ylamino]-benzamide] | 0.45 | 0.41 | 0.18
5.54 | 4.97 | O=C(NO)c1ccc(NC2CCN(c3ccc(-n4ccnc4)cc3)C2=O)cc1 (centres unmarked) [Example 34, N-Hydroxy-4-[1-(4-imidazol-1-yl-phenyl)-2-oxo-pyrrolidin-3-ylamino]-benzamide] | 0.36 | 0.12 | 0.06
6.21 | 5.69 | O=C(NO)c1ccc(NC2CCN(c3cccc(-c4cnco4)c3)C2=O)cc1 (centres unmarked) [Example 35, N-Hydroxy-4-[1-(3-oxazol-5-yl-phenyl)-2-oxo-pyrrolidin-3-ylamino]-benzamide] | 0.44 | 0.25 | 0.20
6.03 | 5.67 | O=C(NO)c1ccc(NC2CCN(c3cccc4ccccc34)C2=O)cc1 (centres unmarked) [Example 37, N-Hydroxy-4-(1-naphthalen-1-yl-2-oxo-pyrrolidin-3-ylamino)-benzamide] | 0.04 | 0.04 | 0.06

From patent US8404738B2 (Hoffmann-La Roche Inc., priority 2011, dated 2013)
